Like-named read-outs stand apart in the source and are kept apart here.
Columns and labels:
[1] = system: plasma clots (human plasma, tPA-induced lysis); experiment: Plasma clot lysis assay; type: biochemical; conditions: for IC50: human plasma, tPA, clot lysis time by absorbance at 405 nm, read-out: IC50 value for inhibition of plasma clot lysis
Text: To determine the inhibitory effect of the compounds of the invention on the degradation of plasma clots.
3. […] The time corresponding to the median of the absorption value in the descending section-the time corresponding to the median of the absorption value in the ascending section is the plasma clot degradation time (Clot lysis time).
Taking the log value of the compound concentration as the X-axis, and the percentage inhibition rate as the Y-axis, and dose-response curves were fitted with the software GraphPad Prism 5 by using log (inhibitor) vs. Response-Variable slope to derive IC50 values of compounds inhibiting the degradation of plasma clots. Y=min+(max−min)/(1+10^((LogIC50−X)×Hillslope). Formula: […]

[2] = Rat PK assay, intravenous administration; type: in vivo; conditions: male, Sprague-Dawley, plasma, SD rats, 1 mg/kg single dose
Description: The pharmacokinetic profile of the compounds of the invention in rats was studied by measuring the plasma drug concentration after intravenous administration.
Male Sprague-Dawley rats of SPF grade, 3 rats each group, were obtained from: Shanghai Sippe-Bk Lab Animal Co., Ltd.
The compound was weighed and dissolved in normal saline to prepare a 0.2 mg/mL solution for intravenous administration.
The day before the experiment, the rats were fasted overnight and fed 4 hours after administration.
On the day of the experiment, the rats were administered according to the scheme in the table below. At each time point after administration, approximately 200 μL of blood was collected from the jugular vein and placed in heparin sodium anticoagulation tubes. Blood samples were placed on ice after collection, and the plasma was separated by centrifugation within 1 hour (centrifugation conditions: 6800 g, 6 minutes, 2-8° C.). The separated plasma was stored in a refrigerator at −80° C. for biological sample analysis.
The compound concentration in rat plasma was determined by the following method: • Instruments and equipment: LC-MS/MS-19 (TQ5500, AB SCIEX, USA). • Internal standard: warfarin. • Chromatographic column: ACQUITY UPLC BEH C18, model 1.7 um 2.1*50 mm, purchased from Shenzhen Novah Chemical Technology Co., Ltd.; • Flow rate: 0.60 ml/min. • Column temperature: 40° C. • Mobile phase A: 0.1% formic acid in water. • Mobile phase B: 0.1% formic acid in acetonitrile.
Take 30 μL of the plasma sample prepared from item “3”, add 300 μL MeOH containing 100 ng/ml of internal standard to precipitate protein. The mixture was vortexed for 1 minute and centrifuged at 18000 g for 7 minutes. The supernatant was transferred to a 96-well plate. Inject 4 μL of supernatant into LC-MS/MS for analysis.
The concentration of the compound in rat plasma was determined by the above-mentioned LC-MS/MS analysis method, and pharmacokinetic parameters were calculated by using Phoenix WinNonlin7.0 software according to blood concentration data of different time points.

[3] = system: human whole blood under hyperfibrinolytic state induced by rtPA; experiment: Human whole blood thromboelastography (TEG) assay; type: biochemical; conditions: for CLT doubling: clot lysis time at the doubling concentration
Description: The antifibrinolytic effect of the compounds of the invention in the human whole blood under hyperfibrinolytic state induced by rtPA (recombinant tissue […]) was determined using the Thromboelastogram (TEG).
• Source of human blood: All human blood used in the experiments was provided by healthy volunteers. 3. Experimental Procedure • (1) Preparation of test substance solution: Accurately weigh the test substance, and use normal saline to prepare the test substance to the following concentrations (100×test concentration): • Tranexamic acid (μM): 3000, 1000, 300, 100, 30, 10, 0; • Example 6 (μM): 1000, 300, 100, 30, 10, 3, 0. • (2) Preparation of rt-PA (alteplase for injection): the active dry powder of rtPA was formulated to 25 μg/mL using water for injection in the rtPA package. • (3) Reaction system:
Mix 392 μL of sodium citrate anticoagulated whole blood with 4 μL rtPA and 4 μL test substance, reacted at room temperature, and TEG curve was detected for 2 hours to obtain the time parameter of CLT (clot lysis time). • (4) Result calculations
Taking the log value of the compound concentration as the X-axis and the CLT value as the Y-axis, and dose-response curves were fitted using log (inhibitor) vs. Response-Variable slope (GraphPad Prism 8 software).
The concentration of compound corresponding to doubling the CLT time was calculated.

[4] = system: fibrinolysis; conditions: relative to EACA; cited from earlier work
[5] = relative inhibition of plasma clot lysis vs tranexamic acid in vitro, plasma clot lysis

SMILES: Cl.O=P(O)(O)c1ccc2c(n1)CCNC2 [Example 1, (5,6,7,8-tetrahydro-1,6-naphthyridin-2-yl)phosphonic Acid Hydrochloride]
- IC50 [1]: 900 nM
- IC50 ratio (IC50 Examples/IC50 Tranexamic acid) [1, 5]: 0.19
- AUC [2]: 14000 ng·h/mL
- Cmax [2]: 10200 ng/mL
- clearance [2]: 1.14 mL/min/kg
- half-life [2]: 1.96 h

SMILES: Cl.O=P(O)(O)c1nc2c(cc1F)CNCC2 [Example 2, (3-fluoro-5,6,7,8-tetrahydro-1,6-naphthyridin-2-yl)phosphonic Acid Hydrochloride]
- IC50 ratio (IC50 Examples/IC50 Tranexamic acid) [1, 5]: 0.11
- AUC [2]: 30100 ng·h/mL
- Cmax [2]: 10100 ng/mL
- clearance [2]: 0.555 mL/min/kg
- half-life [2]: 4.15 h

SMILES: CCP(=O)(O)c1ccc2c(n1)CCNC2.Cl [Example 3, Ethyl (5,6,7,8-tetrahydro-1,6-naphthyridin-2-yl)-phosphinic Acid Hydrochloride]
- IC50 ratio (IC50 Examples/IC50 Tranexamic acid) [1]: 0.86

SMILES: Cl.O=P(O)(CCc1ccccc1)c1ccc2c(n1)CCNC2 [Example 4, Phenylethyl (5,6,7,8-tetrahydro-1,6-naphthyridin-2-yl) Phosphinic Acid Hydrochloride]
- IC50 ratio (IC50 Examples/IC50 Tranexamic acid) [1, 5]: 0.36

SMILES: Cl.O=P(O)(O)c1ccc2c(n1)C(F)(F)CNC2 [Example 5, (8,8-difluoro-5,6,7,8-tetrahydro-1,6-naphthyridin-2-yl) Phosphonic Acid Hydrochloride]
- IC50 ratio (IC50 Examples/IC50 Tranexamic acid) [1, 5]: 1.3

SMILES: O=P(O)(O)c1ccc2c(n1)CCNC2 [Example 6, (5,6,7,8-tetrahydro-1,6-naphthyridin-2-yl) Phosphonic Acid Monohydrate]
- Compound concentration for doubling CLT [3]: 0.12 µM
- CLT doubling [3]: 37.06 min
- IC50 ratio (IC50 Examples/IC50 Tranexamic acid) [1, 5]: 0.09

SMILES: Cl.O=P(O)(O)c1ccc2c(n1)C(N1CCOCC1)CNC2 (centres unmarked) [Example 7, (8-morpholino-5,6,7,8-tetrahydro-1,6-naphthyridin-2-yl) Phosphonic Acid Hydrochloride]
- IC50 ratio (IC50 Examples/IC50 Tranexamic acid) [1, 5]: 0.3

SMILES: Cl.O=P(O)(O)c1ccc2c(n1)C(O)CNC2 (centres unmarked) [Example 8, (8-hydroxy-5,6,7,8-tetrahydro-1,6-naphthyridin-2-yl) Phosphonic Acid Hydrochloride]
- IC50 ratio (IC50 Examples/IC50 Tranexamic acid) [1, 5]: 0.2
- AUC [2]: 6660 ng·h/mL
- Cmax [2]: 5990 ng/mL
- clearance [2]: 2.44 mL/min/kg
- half-life [2]: 1.74 h

SMILES: Cl.O=P(O)(O)c1ccc2c(n1)C(OCCO)CNC2 (centres unmarked) [Example 9, (8-(2-hydroxyethoxy)-5,6,7,8-tetrahydro-1,6-naphthyridin-2-yl) Phosphonic Acid Hydrochloride]
- IC50 ratio (IC50 Examples/IC50 Tranexamic acid) [1, 5]: 0.25

SMILES: CC(C)CC1Cc2nc(P(=O)(O)O)ccc2CN1.Cl (centres unmarked) [Example 11, (7-isobutyl-5,6,7,8-tetrahydro-1,6-naphthyridin-2-yl) Phosphonic Acid Hydrochloride]
- IC50 ratio (IC50 Examples/IC50 Tranexamic acid) [1, 5]: 0.08

SMILES: CCCC1Cc2nc(P(=O)(O)O)ccc2CN1.Cl (centres unmarked) [Example 12, (7-propyl-5,6,7,8-tetrahydro-1,6-naphthyridin-2-yl) Phosphonic Acid Hydrochloride]
- IC50 ratio (IC50 Examples/IC50 Tranexamic acid) [1, 5]: 0.2

SMILES: Cl.O=P(O)(O)c1ccc2c(n1)CC(CCc1ccccc1)NC2 (centres unmarked) [Example 13, (7-phenylethyl-5,6,7,8-tetrahydro-1,6-naphthyridin-2-yl) Phosphonic Acid Hydrochloride]
- IC50 ratio (IC50 Examples/IC50 Tranexamic acid) [1, 5]: 0.2

SMILES: CCOP(=O)(O)c1ccc2c(n1)CCNC2.Cl [Example 15]
- IC50 ratio (IC50 Examples/IC50 Tranexamic acid) [1, 5]: 0.29
- AUC [2]: 2830 ng·h/mL
- Cmax [2]: 4890 ng/mL
- clearance [2]: 5.85 mL/min/kg
- half-life [2]: 0.77 h

SMILES: COc1ccc(CCC2Cc3nc(P(=O)(O)O)ccc3CN2)cc1.Cl (centres unmarked) [Example 16]
- IC50 ratio (IC50 Examples/IC50 Tranexamic acid) [1, 5]: 0.07

SMILES: Cl.O=P(O)(c1ccccc1)c1ccc2c(n1)CCNC2 [Example 17]
- IC50 ratio (IC50 Examples/IC50 Tranexamic acid) [1, 5]: 0.2
- AUC [2]: 2820 ng·h/mL
- Cmax [2]: 4090 ng/mL
- clearance [2]: 5.83 mL/min/kg
- half-life [2]: 1.53 h

SMILES: CC(=O)OCOP(=O)(O)c1ccc2c(n1)CCNC2 [Example 18]
- IC50 ratio (IC50 Examples/IC50 Tranexamic acid) [1, 5]: 0.23

SMILES: CC(C)C(=O)OCOP(=O)(O)c1ccc2c(n1)CCNC2 [Example 19]
- IC50 ratio (IC50 Examples/IC50 Tranexamic acid) [1, 5]: 0.26

SMILES: Cl.O=P(O)(O)c1ccc2c(n1)C(N1CCSCC1)CNC2 (centres unmarked) [Example 20]
- IC50 ratio (IC50 Examples/IC50 Tranexamic acid) [1, 5]: 0.21

SMILES: Cl.O=P(O)(O)c1ccc2c(n1)C(N1CCS(=O)(=O)CC1)CNC2 (centres unmarked) [Example 21]
- IC50 ratio (IC50 Examples/IC50 Tranexamic acid) [1, 5]: 0.25

SMILES: Cl.O=P(O)(O)c1ccc2c(n1)CC(COCCCO)NC2 (centres unmarked) [Example 22]
- IC50 ratio (IC50 Examples/IC50 Tranexamic acid) [1, 5]: 0.14
- AUC [2]: 5530 ng·h/mL
- Cmax [2]: 6790 ng/mL
- clearance [2]: 2.98 mL/min/kg
- half-life [2]: 3.58 h

SMILES: CC(C)(C)CC1Cc2nc(P(=O)(O)O)ccc2CN1.Cl (centres unmarked) [Example 23]
- IC50 ratio (IC50 Examples/IC50 Tranexamic acid) [1, 5]: 0.19

SMILES: CC(C)C1Cc2nc(P(=O)(O)O)ccc2CN1.Cl (centres unmarked) [Example 24]
- IC50 ratio (IC50 Examples/IC50 Tranexamic acid) [1, 5]: 0.14

SMILES: Cl.O=P(O)(O)c1ccc2c(n1)CC(CCCc1ccccc1)NC2 (centres unmarked) [Example 25]
- IC50 ratio (IC50 Examples/IC50 Tranexamic acid) [1, 5]: 0.21

SMILES: CC(C)CCC1Cc2nc(P(=O)(O)O)ccc2CN1.Cl (centres unmarked) [Example 26]
- IC50 ratio (IC50 Examples/IC50 Tranexamic acid) [1, 5]: 0.09

SMILES: CC(C)(C)CCC1Cc2nc(P(=O)(O)O)ccc2CN1.Cl (centres unmarked) [Example 27]
- IC50 ratio (IC50 Examples/IC50 Tranexamic acid) [1, 5]: 0.1

SMILES: Cl.O=P(O)(O)c1ccc2c(n1)CC(CC1CCCCC1)NC2 (centres unmarked) [Example 28]
- IC50 ratio (IC50 Examples/IC50 Tranexamic acid) [1, 5]: 0.07

SMILES: Cl.O=P(O)(O)c1ccc2c(n1)CC(CCC1CCCCC1)NC2 (centres unmarked) [Example 29]
- IC50 ratio (IC50 Examples/IC50 Tranexamic acid) [1, 5]: 0.09

SMILES: Cl.O=P(O)(O)c1ccc2c(n1)CC(Cc1ccccc1)NC2 (centres unmarked) [Example 30]
- IC50 ratio (IC50 Examples/IC50 Tranexamic acid) [1, 5]: 0.75

SMILES: CC(C)CC1(CC(C)C)Cc2nc(P(=O)(O)O)ccc2CN1.Cl [Example 31]
- IC50 ratio (IC50 Examples/IC50 Tranexamic acid) [1, 5]: 0.1

SMILES: Cl.O=P(O)(O)c1ccc2c(n1)CC1(CCC1)NC2 [Example 32]
- IC50 ratio (IC50 Examples/IC50 Tranexamic acid) [1, 5]: 0.7

SMILES: Cl.O=P(O)(O)c1ccc2c(n1)CC1(CCCC1)NC2 [Example 33]
- IC50 ratio (IC50 Examples/IC50 Tranexamic acid) [1, 5]: 0.22

SMILES: Cl.O=P(O)(O)c1ccc2c(n1)CC1(CCCCC1)NC2 [Example 34]
- IC50 ratio (IC50 Examples/IC50 Tranexamic acid) [1, 5]: 0.29

SMILES: CCOC(=O)OCOP(=O)(O)c1ccc2c(n1)CCNC2 [Example 35]
- IC50 ratio (IC50 Examples/IC50 Tranexamic acid) [1, 5]: 0.18

SMILES: NC[C@H]1CC[C@H](C(=O)O)CC1 [Tranexamic acid, trans-4-aminomethyl-cyclohexane-carboxylic acid, reference compound]
- Compound concentration for doubling CLT [3]: 1.78 µM
- CLT doubling [3]: 34.66 min
- IC50 [1]: 4750 nM
- AUC [2]: 2820 ng·h/mL
- Cmax [2]: 4410 ng/mL
- clearance [2]: 5.78 mL/min/kg
- half-life [2]: 1.28 h
- anti-fibrinolytic activity, times that of EACA [4]: about 10 times

From patent publication US12649755B2, “Plasmin inhibitor, preparation method therefor and application thereof” (SCINNOHUB PHARMACEUTICAL CO., LTD, priority 2020, dated 2026)
